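The concentration for 50% growth inhibition is given as GI50. The concentration for full growth arrest is given as TGI.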
Key:
Experiment in all cases: NCI-60 cell line screen, 384-well format
SF-539 CNS = test system: SF-539 CNS
IGROV1 ovarian = test system: IGROV1 ovarian
NCI-H226 lung = test system: NCI-H226 lung
RXF 393 renal = test system: RXF 393 renal
NCI-H322M lung = test system: NCI-H322M lung
EKVX NSCLC = test system: EKVX NSCLC
BT-549 breast = test system: BT-549 breast
MDA-MB-468 breast = test system: MDA-MB-468 breast
HCC-2998 colon = test system: HCC-2998 colon
LOX IMVI melanoma = test system: LOX IMVI melanoma
HT29 colon = test system: HT29 colon
HOP-62 NSCLC = test system: HOP-62 NSCLC
SF-268 CNS = test system: SF-268 CNS
UACC-257 melanoma = test system: UACC-257 melanoma
TK-10 renal = test system: TK-10 renal
M14 melanoma = test system: M14 melanoma
DU-145 prostate = test system: DU-145 prostate
NCI-H522 lung = test system: NCI-H522 lung
NCI-H460 NSCLC = test system: NCI-H460 NSCLC
SN12C renal = test system: SN12C renal
SR leukemia = test system: SR leukemia
MDA-MB-435 melanoma = test system: MDA-MB-435 melanoma
HL-60(TB) leukemia = test system: HL-60(TB) leukemia
HCT-116 colon = test system: HCT-116 colon
SK-MEL-28 melanoma = test system: SK-MEL-28 melanoma
SF-295 CNS = test system: SF-295 CNS
MALME-3M melanoma = test system: MALME-3M melanoma
A498 renal = test system: A498 renal
UACC-62 melanoma = test system: UACC-62 melanoma
SNB-75 CNS = test system: SNB-75 CNS
U251 glioblastoma = test system: U251 glioblastoma
OVCAR-5 ovarian = test system: OVCAR-5 ovarian
SNB-19 CNS = test system: SNB-19 CNS
MDA-MB-231 breast = test system: MDA-MB-231 breast
HCT-15 colon = test system: HCT-15 colon
HS 578T breast = test system: HS 578T breast
COLO 205 colon = test system: COLO 205 colon
OVCAR-3 ovarian = test system: OVCAR-3 ovarian
RPMI-8226 leukemia = test system: RPMI-8226 leukemia
SK-OV-3 ovarian = test system: SK-OV-3 ovarian
ACHN renal = test system: ACHN renal
OVCAR-4 ovarian = test system: OVCAR-4 ovarian
MOLT-4 leukemia = test system: MOLT-4 leukemia
OVCAR-8 ovarian = test system: OVCAR-8 ovarian
NCI/ADR-RES ovarian = test system: NCI/ADR-RES ovarian
MCF7 breast = test system: MCF7 breast
KM12 colon = test system: KM12 colon
HOP-92 NSCLC = test system: HOP-92 NSCLC
NCI-H23 lung = test system: NCI-H23 lung
CAKI-1 renal = test system: CAKI-1 renal
SK-MEL-5 melanoma = test system: SK-MEL-5 melanoma
T-47D breast = test system: T-47D breast
A549 NSCLC = test system: A549 NSCLC
PC-3 prostate = test system: PC-3 prostate
786-0 renal = test system: 786-0 renal
SW-620 colon = test system: SW-620 colon
UO-31 renal = test system: UO-31 renal

## COC(=O)c1ccc2c(c1)nc(NC(=O)c1ccccc1)n2CCCc1ccccc1
SF-539 CNS
  GI50: 2130 nM
  TGI: 18000 nM
IGROV1 ovarian
  GI50: 2040 nM
  TGI: > 100000 nM
NCI-H226 lung
  GI50: 3410 nM
  TGI: 48900 nM
RXF 393 renal
  GI50: 3110 nM
  TGI: > 100000 nM
NCI-H322M lung
  GI50: 884 nM
  TGI: 8590 nM
EKVX NSCLC
  GI50: 1460 nM
  TGI: > 100000 nM
BT-549 breast
  GI50: 741 nM
  TGI: 6460 nM
MDA-MB-468 breast
  GI50: 2190 nM
  TGI: > 100000 nM
HCC-2998 colon
  GI50: 1850 nM
  TGI: > 100000 nM
LOX IMVI melanoma
  GI50: 946 nM
  TGI: 2810 nM
HT29 colon
  GI50: 2720 nM
  TGI: > 100000 nM
HOP-62 NSCLC
  GI50: 469 nM
  TGI: 3550 nM
SF-268 CNS
  GI50: 1810 nM
  TGI: > 100000 nM
UACC-257 melanoma
  GI50: 2320 nM
  TGI: 9950 nM
TK-10 renal
  GI50: 2630 nM
  TGI: 34500 nM
M14 melanoma
  GI50: 519 nM
  TGI: 3050 nM
DU-145 prostate
  GI50: 1770 nM
  TGI: 24400 nM
NCI-H522 lung
  GI50: 1490 nM
  TGI: 9610 nM
NCI-H460 NSCLC
  GI50: 342 nM
  TGI: 1140 nM
SN12C renal
  GI50: 2380 nM
  TGI: 8750 nM
SR leukemia
  GI50: 203 nM
  TGI: 440 nM
MDA-MB-435 melanoma
  GI50: 4030 nM
  TGI: > 100000 nM
HL-60(TB) leukemia
  GI50: 413 nM
  TGI: 1750 nM
HCT-116 colon
  GI50: 852 nM
  TGI: > 100000 nM
SK-MEL-28 melanoma
  GI50: 3120 nM
  TGI: > 100000 nM
SF-295 CNS
  GI50: 3110 nM
  TGI: > 100000 nM
MALME-3M melanoma
  GI50: 2900 nM
  TGI: > 100000 nM
A498 renal
  GI50: 2080 nM
  TGI: 15900 nM
UACC-62 melanoma
  GI50: 2450 nM
  TGI: > 100000 nM
SNB-75 CNS
  GI50: 3910 nM
  TGI: 66800 nM
U251 glioblastoma
  GI50: 673 nM
  TGI: 11300 nM
OVCAR-5 ovarian
  GI50: 3940 nM
  TGI: 31600 nM
SNB-19 CNS
  GI50: 2210 nM
  TGI: 20000 nM
MDA-MB-231 breast
  GI50: 7060 nM
  TGI: > 100000 nM
HCT-15 colon
  GI50: 478 nM
  TGI: 4000 nM
HS 578T breast
  GI50: 6950 nM
  TGI: > 100000 nM
COLO 205 colon
  GI50: 2040 nM
  TGI: 5780 nM
OVCAR-3 ovarian
  GI50: 1840 nM
  TGI: 69400 nM
RPMI-8226 leukemia
  GI50: 1500 nM
  TGI: 4600 nM
SK-OV-3 ovarian
  GI50: 973 nM
  TGI: > 100000 nM
ACHN renal
  GI50: 3990 nM
  TGI: 31700 nM
OVCAR-4 ovarian
  GI50: 11500 nM
  TGI: 65900 nM
MOLT-4 leukemia
  GI50: 222 nM
  TGI: 413 nM
OVCAR-8 ovarian
  GI50: 1580 nM
  TGI: 5250 nM
NCI/ADR-RES ovarian
  GI50: 458 nM
  TGI: 2160 nM
MCF7 breast
  GI50: 1650 nM
  TGI: > 100000 nM
KM12 colon
  GI50: 2330 nM
  TGI: > 100000 nM
HOP-92 NSCLC
  GI50: 3930 nM
  TGI: > 100000 nM
NCI-H23 lung
  GI50: 1860 nM
  TGI: > 100000 nM
CAKI-1 renal
  GI50: 6360 nM
  TGI: > 100000 nM
SK-MEL-5 melanoma
  GI50: 395 nM
  TGI: 1670 nM
T-47D breast
  GI50: 4130 nM
  TGI: > 100000 nM
A549 NSCLC
  GI50: 3610 nM
  TGI: > 100000 nM
PC-3 prostate
  GI50: 4950 nM
  TGI: > 100000 nM

## COC(=O)C[C@](O)(CCCC(C)(C)O)C(=O)O[C@@H]1C(OC)=C[C@]23CCCN2CCc2cc4c(cc2[C@H]13)OCO4
SF-539 CNS
  GI50: 17.2 nM
  TGI: 33.3 nM
IGROV1 ovarian
  GI50: 24 nM
  TGI: 115 nM
NCI-H226 lung
  GI50: 11.9 nM
  TGI: 38 nM
RXF 393 renal
  GI50: 17.4 nM
  TGI: 47.9 nM
NCI-H322M lung
  GI50: 84.4 nM
  TGI: 287 nM
EKVX NSCLC
  GI50: 36.5 nM
  TGI: 201 nM
786-0 renal
  GI50: 26 nM
  TGI: 147 nM
BT-549 breast
  GI50: 17.1 nM
  TGI: 34.8 nM
MDA-MB-468 breast
  GI50: < 10 nM
  TGI: 19.9 nM
HCC-2998 colon
  GI50: < 10 nM
  TGI: 25.3 nM
LOX IMVI melanoma
  GI50: < 10 nM
  TGI: 21.9 nM
HT29 colon
  GI50: 21.4 nM
  TGI: 66.3 nM
HOP-62 NSCLC
  GI50: 26.3 nM
  TGI: 134 nM
SF-268 CNS
  GI50: 31.1 nM
  TGI: 85.2 nM
UACC-257 melanoma
  GI50: 26.5 nM
  TGI: 65.6 nM
TK-10 renal
  GI50: 48.7 nM
  TGI: 894 nM
M14 melanoma
  GI50: 20.3 nM
  TGI: 41.6 nM
DU-145 prostate
  GI50: 29.9 nM
  TGI: 85 nM
NCI-H522 lung
  GI50: < 10 nM
  TGI: 17.3 nM
NCI-H460 NSCLC
  GI50: < 10 nM
  TGI: 17 nM
SN12C renal
  GI50: 40.4 nM
  TGI: 267 nM
SR leukemia
  GI50: < 10 nM
  TGI: < 10 nM
MDA-MB-435 melanoma
  GI50: 43.4 nM
  TGI: 130 nM
HL-60(TB) leukemia
  GI50: < 10 nM
  TGI: < 10 nM
HCT-116 colon
  GI50: < 10 nM
  TGI: 88.7 nM
SK-MEL-28 melanoma
  GI50: 25.7 nM
  TGI: 62.5 nM
SF-295 CNS
  GI50: 26 nM
  TGI: 55.9 nM
MALME-3M melanoma
  GI50: 15 nM
  TGI: 33.2 nM
A498 renal
  GI50: 19 nM
  TGI: 44.9 nM
UACC-62 melanoma
  GI50: 31.8 nM
  TGI: 107 nM
SNB-75 CNS
  GI50: 32.1 nM
  TGI: 78.9 nM
U251 glioblastoma
  GI50: 21.4 nM
  TGI: 66.9 nM
OVCAR-5 ovarian
  GI50: 48.9 nM
  TGI: 806 nM
SNB-19 CNS
  GI50: 29.8 nM
  TGI: > 100000 nM
MDA-MB-231 breast
  GI50: 31.6 nM
  TGI: 105 nM
HCT-15 colon
  GI50: 47.7 nM
  TGI: 233 nM
SW-620 colon
  GI50: 30.4 nM
  TGI: 183 nM
HS 578T breast
  GI50: 18 nM
  TGI: 34.6 nM
COLO 205 colon
  GI50: 25.9 nM
  TGI: 120 nM
OVCAR-3 ovarian
  GI50: 13.8 nM
  TGI: 41.1 nM
RPMI-8226 leukemia
  GI50: < 10 nM
  TGI: 15.5 nM
SK-OV-3 ovarian
  GI50: 26 nM
  TGI: 172 nM
UO-31 renal
  GI50: 295 nM
  TGI: 1090 nM
ACHN renal
  GI50: 43.2 nM
  TGI: 304 nM
OVCAR-4 ovarian
  GI50: 26.5 nM
  TGI: 72.1 nM
MOLT-4 leukemia
  GI50: < 10 nM
  TGI: < 10 nM
OVCAR-8 ovarian
  GI50: 25.9 nM
  TGI: 66.8 nM
NCI/ADR-RES ovarian
  GI50: 1780 nM
  TGI: 7740 nM
MCF7 breast
  GI50: < 10 nM
  TGI: 1450 nM
KM12 colon
  GI50: 27.5 nM
  TGI: 183 nM
HOP-92 NSCLC
  GI50: 37.9 nM
  TGI: 102 nM
NCI-H23 lung
  GI50: 17.6 nM
  TGI: 36.9 nM
CAKI-1 renal
  GI50: 42.4 nM
  TGI: 266 nM
SK-MEL-5 melanoma
  GI50: 13 nM
  TGI: 36.6 nM
T-47D breast
  GI50: 27.5 nM
  TGI: 187 nM
A549 NSCLC
  GI50: 18 nM
  TGI: 115 nM
PC-3 prostate
  GI50: 26 nM
  TGI: 139 nM

— PubChem BioAssay (NCI)
